According to patent US10448639B2, “Fungicidal pyrazoles” (FMC CORPORATION, priority 2009, dated 2019):
Read-outs that look alike come from different tables or passages of the source. Marks after values point to notes of the source that are not given here.

Tests used:
Septoria tritici = experiment: Test G: wheat leaf blotch, preventive spray on wheat seedlings, visual disease rating; conditions: for pest or weed control at 200 µg/mL: Zymoseptoria tritici, in Triticum aestivum, 504 h; for Test G disease control rating: sprayed the day before inoculation, 0 = no disease control relative to controls; for Test G disease control rating / Test G rating (% disease control): 100 = 100% disease control
[1] = test system: Puccinia recondita f. sp. tritici; experiment: Test I: wheat leaf rust, preventive spray on wheat seedlings, visual disease rating; conditions: for pest or weed control at 200 µg/mL: 192 h; for Test I disease control rating: sprayed the day before inoculation, 0 = no disease control relative to controls; for Test I disease control rating / Test I rating (% disease control): 100 = 100% disease control
Botrytis cinerea = experiment: Test B: tomato Botrytis, preventive spray on tomato seedlings, visual disease rating; conditions: for pest or weed control at 200 µg/mL: Botrytis cinerea, in Solanum lycopersicum, 120 h; for Test B disease control rating / Test B rating (% disease control): 100 = 100% disease control; for Test B disease control rating: 0 = no disease control relative to controls
Alternaria solani = experiment: Test C: tomato early blight, preventive spray on tomato seedlings, visual disease rating; conditions: for pest or weed control at 200 µg/mL: Alternaria solani, in Solanum lycopersicum, 168 h; for Test C disease control rating / Test C rating (% disease control): 100 = 100% disease control; for Test C disease control rating: 0 = no disease control relative to controls
[2] = test system: Puccinia recondita f. sp. tritici; experiment: Test H: wheat leaf rust, curative spray on inoculated wheat seedlings, visual disease rating; conditions: for pest or weed control at 200 µg/mL: 144 h; for Test H disease control rating: sprayed after inoculation, 0 = no disease control relative to controls; for Test H disease control rating / Test H rating (% disease control): 100 = 100% disease control
Septoria nodorum = experiment: Test F: Septoria glume blotch, preventive spray on wheat seedlings, visual disease rating; conditions: for pest or weed control at 200 µg/mL: Parastagonospora nodorum, in Triticum aestivum, 192 h; for Test F disease control rating / Test F rating (% disease control): 100 = 100% disease control; for Test F disease control rating: 0 = no disease control relative to controls
[3] = test system: Erysiphe graminis f sp. tritici; experiment: Test J: wheat powdery mildew, preventive spray on wheat seedlings, visual disease rating; conditions: for pest or weed control at 200 µg/mL: Blumeria graminis, in Triticum aestivum, 192 h; for Test J disease control rating: sprayed the day before inoculation, 0 = no disease control relative to controls; for Test J disease control rating / Test J rating (% disease control): 100 = 100% disease control
[4] = read-out: Test G rating (% disease control)
[5] = read-out: Test I rating (% disease control)
[6] = read-out: Test B rating (% disease control)
[7] = read-out: Test C rating (% disease control)
[8] = read-out: Test H rating (% disease control)
[9] = read-out: Test F rating (% disease control)
[10] = read-out: Test J rating (% disease control)
[11] = wheat leaf blotch, 0 = no control relative to controls
[12] = wheat leaf rust, preventive, 0 = no control relative to controls
[13] = tomato Botrytis, 0 = no control relative to controls
[14] = tomato early blight, 0 = no control relative to controls
[15] = wheat leaf rust, curative, 0 = no control relative to controls
[16] = Septoria glume blotch, 0 = no control relative to controls
[17] = wheat powdery mildew, 0 = no control relative to controls
[18] = read-out: Test G disease control rating
[19] = read-out: Test I disease control rating
[20] = read-out: Test B disease control rating
[21] = read-out: Test C disease control rating
[22] = read-out: Test H disease control rating
[23] = read-out: Test F disease control rating
[24] = read-out: Test J disease control rating

In the case of `Cc1nn(C)c(Nc2c(F)cc(C#N)cc2F)c1-c1ccc(F)cc1Cl` [Compound 91, 4-[[4-(2-chloro-4-fluorophenyl)-1,3-dimethyl-1H-pyrazol-5-yl]amino]-3,5-difluorobenzonitrile], the pest or weed control at 200 µg/mL (Septoria tritici; [4]) is reported as 99%, the pest or weed control at 200 µg/mL [1, 5] is reported as 100% and the pest or weed control at 200 µg/mL (Botrytis cinerea; [6]) is reported as 100%. It also gave a pest or weed control at 200 µg/mL (Alternaria solani; [7]) of 99%, a pest or weed control at 200 µg/mL [2, 8] of 0% and a pest or weed control at 200 µg/mL (Septoria nodorum; [9]) of 95%. The pest or weed control at 200 µg/mL [3, 10] was 100%.
With `COc1ccc(Nc2c(-c3c(Cl)cccc3Cl)c(C)nn2C)cc1` [compound 333] the “Test G disease control rating” value (Septoria tritici; wheat leaf blotch) was 100%, the “Test I disease control rating” value ([1]; wheat leaf rust) was 74% and the “Test B disease control rating” value (Botrytis cinerea; tomato Botrytis) was 100%. For the same molecule, the “Test C disease control rating” value (Alternaria solani; tomato early blight) was 0%, the “Test H disease control rating” value ([2]; wheat leaf rust) was 9% and the “Test F disease control rating” value (Septoria nodorum; Septoria glume blotch on wheat) was 0%. The “Test J disease control rating” value ([3]; wheat powdery mildew) was 0%.
`COc1cc(F)c(-c2c(C)nn(C)c2Nc2ccc(Cl)cc2)c(F)c1` [Compound 22, N-(4-chlorophenyl)-4-(2,6-difluoro-4-methoxyphenyl)-1,3-dimethyl-1H-pyrazol-5-amine] showed a pest or weed control at 200 µg/mL (Septoria tritici; [4]) of 94%, a pest or weed control at 200 µg/mL [1, 5] of 94% and a pest or weed control at 200 µg/mL (Botrytis cinerea; [6]) of 90%. The pest or weed control at 200 µg/mL (Alternaria solani; [7]) was 85%, the pest or weed control at 200 µg/mL [2, 8] was 9% and the pest or weed control at 200 µg/mL (Septoria nodorum; [9]) was 90%. It also gave a pest or weed control at 200 µg/mL [3, 10] of 100%.
With `Cc1nn(C)c(Nc2cc([N+](=O)[O-])ccc2F)c1-c1ccc(F)cc1Cl` [compound 345] the “Test G disease control rating” value (Septoria tritici; wheat leaf blotch) was 67%, the “Test I disease control rating” value ([1]; wheat leaf rust) was 9% and the “Test B disease control rating” value (Botrytis cinerea; tomato Botrytis) was 0%. The “Test C disease control rating” value (Alternaria solani; tomato early blight) was 0%, the “Test H disease control rating” value ([2]; wheat leaf rust) was 0% and the “Test F disease control rating” value (Septoria nodorum; Septoria glume blotch on wheat) was 0%. For the same molecule, the “Test J disease control rating” value ([3]; wheat powdery mildew) was 0%.
In the case of `COc1cc(F)c(Nc2c(-c3cccc(F)c3F)c(C)nn2C)c(F)c1` [compound 204], the “Test G rating (% disease control), marked *” value (Septoria tritici; wheat leaf blotch, rating marked with asterisk (*), meaning not given) is reported as 99* %, the “Test I rating (% disease control), marked *” value ([1]; wheat leaf rust, preventive, rating marked with asterisk (*), meaning not given) is reported as 86* % and the “Test B rating (% disease control), marked *” value (Botrytis cinerea; tomato Botrytis, rating marked with asterisk (*), meaning not given) is reported as 100* %. For the same molecule, the “Test C rating (% disease control), marked *” value (Alternaria solani; tomato early blight, rating marked with asterisk (*), meaning not given) was 77* %, the “Test H rating (% disease control), marked *” value ([2]; wheat leaf rust, curative, rating marked with asterisk (*), meaning not given) was 0* % and the “Test F rating (% disease control), marked *” value (Septoria nodorum; Septoria glume blotch, rating marked with asterisk (*), meaning not given) was 0* %. For the same molecule, the “Test J rating (% disease control), marked *” value ([3]; wheat powdery mildew, rating marked with asterisk (*), meaning not given) was 99* %.
`COc1cc(F)c(Nc2c(-c3c(F)cccc3Cl)c(C)nn2C)c(F)c1` [compound 190] was tested, and the “Test G rating (% disease control)” value (Septoria tritici; [11]) was 100%, the “Test I rating (% disease control)” value [1, 12] was 100% and the “Test B rating (% disease control)” value (Botrytis cinerea; [13]) was 99%. For the same molecule, the “Test C rating (% disease control)” value (Alternaria solani; [14]) was 99%, the “Test H rating (% disease control)” value [2, 15] was 94% and the “Test F rating (% disease control)” value (Septoria nodorum; [16]) was 80%. The “Test J rating (% disease control)” value [3, 17] was 99%.
`Cc1nn(C)c(Nc2ccc(Cl)nc2Cl)c1-c1ccc(F)cc1Cl` [compound 107] was tested, and the “Test G rating (% disease control), value marked *” value (Septoria tritici; wheat leaf blotch, preventive spray, rating marked with asterisk (different test condition, key not given)) was 99* %, the “Test I rating (% disease control), value marked *” value ([1]; wheat leaf rust, preventive spray, rating marked with asterisk (different test condition, key not given)) was 24* % and the “Test B rating (% disease control), value marked *” value (Botrytis cinerea; tomato Botrytis, preventive spray, rating marked with asterisk (different test condition, key not given)) was 99* %. For the same molecule, the “Test C rating (% disease control), value marked *” value (Alternaria solani; tomato early blight, preventive spray, rating marked with asterisk (different test condition, key not given)) was 0* %, the “Test H rating (% disease control), value marked *” value ([2]; wheat leaf rust, curative spray, rating marked with asterisk (different test condition, key not given)) was 8* % and the “Test F rating (% disease control), value marked *” value (Septoria nodorum; Septoria glume blotch, preventive spray, rating marked with asterisk (different test condition, key not given)) was 0* %. For the same molecule, the “Test J rating (% disease control), value marked *” value ([3]; wheat powdery mildew, preventive spray, rating marked with asterisk (different test condition, key not given)) was 0* %.
With `COc1ccc(Nc2c(-c3c(F)cc(F)cc3F)c(C)nn2C)cn1` [compound 94] the “Test G rating (% disease control)” value (Septoria tritici; wheat leaf blotch, preventive spray, 0 = no control) was 98%, the “Test I rating (% disease control)” value ([1]; wheat leaf rust, preventive spray, 0 = no control) was 9% and the “Test B rating (% disease control)” value (Botrytis cinerea; tomato Botrytis, preventive spray, 0 = no control) was 99%. The “Test C rating (% disease control)” value (Alternaria solani; tomato early blight, preventive spray, 0 = no control) was 70%, the “Test H rating (% disease control)” value ([2]; wheat leaf rust, curative spray, 0 = no control) was 0% and the “Test F rating (% disease control)” value (Septoria nodorum; Septoria glume blotch on wheat, preventive spray, 0 = no control) was 29%. The “Test J rating (% disease control)” value ([3]; wheat powdery mildew, preventive spray, 0 = no control) was 0%.
In the case of `Cc1nn(C)c(Nc2ccc(F)cc2F)c1-c1ccc(F)cc1F` [compound 230], the “Test G rating (% disease control)” value (Septoria tritici; [11]) is reported as 100%, the “Test I rating (% disease control)” value [1, 12] is reported as 97% and the “Test B rating (% disease control)” value (Botrytis cinerea; [13]) is reported as 99%. The “Test C rating (% disease control)” value (Alternaria solani; [14]) was 99%, the “Test H rating (% disease control)” value [2, 15] was 0% and the “Test F rating (% disease control)” value (Septoria nodorum; [16]) was 0%. For the same molecule, the “Test J rating (% disease control)” value [3, 17] was 100%.
`Cc1nn(C)c(Oc2ccc(C#N)cc2F)c1-c1c(F)cccc1F` [Compound 361, 4-[[4-(2,6-difluorophenyl)-1,3-dimethyl-1H-pyrazol-5-yl]oxy]-3-fluorobenzonitrile] showed a pest or weed control at 200 µg/mL (Septoria tritici; [18]) of 100%, a pest or weed control at 200 µg/mL [1, 19] of 100% and a pest or weed control at 200 µg/mL (Botrytis cinerea; [20]) of 100%. The pest or weed control at 200 µg/mL (Alternaria solani; [21]) was 90%, the pest or weed control at 200 µg/mL [2, 22] was 0% and the pest or weed control at 200 µg/mL (Septoria nodorum; [23]) was 0%. The pest or weed control at 200 µg/mL [3, 24] was 100%.
For `COc1cccc(Oc2c(-c3c(F)cc(F)cc3F)c(C)nn2C)c1` [compound 213], the “Test G rating (% disease control)” value (Septoria tritici; [11]) was 85%, the “Test I rating (% disease control)” value [1, 12] was 96% and the “Test B rating (% disease control)” value (Botrytis cinerea; [13]) was 97%. The “Test C rating (% disease control)” value (Alternaria solani; [14]) was 30%, the “Test H rating (% disease control)” value [2, 15] was 94% and the “Test F rating (% disease control)” value (Septoria nodorum; [16]) was 0%. For the same molecule, the “Test J rating (% disease control)” value [3, 17] was 100%.
In the case of `Cc1nn(C)c(Nc2c(F)cc(Cl)cc2F)c1-c1ccc(F)cc1F` [Compound 357, N-(4-chloro-2,6-difluorophenyl)-4-(2,4-difluorophenyl)-1,3-dimethyl-1H-pyrazol-5-amine], the pest or weed control at 200 µg/mL (Septoria tritici; [18]) is reported as 100%, the pest or weed control at 200 µg/mL [1, 19] is reported as 99% and the pest or weed control at 200 µg/mL (Botrytis cinerea; [20]) is reported as 100%. For the same molecule, the pest or weed control at 200 µg/mL (Alternaria solani; [21]) was 86%, the pest or weed control at 200 µg/mL [2, 22] was 0% and the pest or weed control at 200 µg/mL (Septoria nodorum; [23]) was 87%. The pest or weed control at 200 µg/mL [3, 24] was 100%.
In the case of `COc1cc(F)c(-c2c(C)nn(C)c2Oc2ccc(C)c(C)c2)c(F)c1` [compound 210], the “Test G rating (% disease control)” value (Septoria tritici; [11]) is reported as 100%, the “Test I rating (% disease control)” value [1, 12] is reported as 94% and the “Test B rating (% disease control)” value (Botrytis cinerea; [13]) is reported as 0%. For the same molecule, the “Test C rating (% disease control)” value (Alternaria solani; [14]) was 0%, the “Test H rating (% disease control)” value [2, 15] was 99% and the “Test F rating (% disease control)” value (Septoria nodorum; [16]) was 0%. The “Test J rating (% disease control)” value [3, 17] was 99%.
`Cc1nn(C)c(Nc2cc(F)c(F)cc2F)c1-c1ccc(F)cc1F` [compound 229] was tested, and the “Test G rating (% disease control)” value (Septoria tritici; [11]) was 99%, the “Test I rating (% disease control)” value [1, 12] was 91% and the “Test B rating (% disease control)” value (Botrytis cinerea; [13]) was 99%. For the same molecule, the “Test C rating (% disease control)” value (Alternaria solani; [14]) was 17%, the “Test H rating (% disease control)” value [2, 15] was 0% and the “Test F rating (% disease control)” value (Septoria nodorum; [16]) was 0%. For the same molecule, the “Test J rating (% disease control)” value [3, 17] was 98%.
